Reference: article PMC8387043, “Host Poly(A) Polymerases PAPD5 and PAPD7 Provide Two Layers of Protection That Ensure the Integrity and Stability of Hepatitis B Virus RNA” (Journal of Virology, 2021)

Experiments:
DENV2 = assay: Antiviral selectivity panel, CPE in BHK21 cells; type: cell-based, Dengue virus 2; conditions: Dengue virus, DENV2, BHK-21
Description: HepG2.2.15 (30,000 cells/well) were plated in 96-well collagen-treated plates and incubated at 37°C. Compounds were half-log serially diluted and added in duplicate to 96-well microtiter plates. The plates were incubated for a total duration of 6 days, after which the culture medium was removed for the HBsAg and HBeAg CLIA assays (AutoBio Diagnostics Co., China) performed according to the manufacturer’s instructions. Secreted HBV DNA was extracted (Realtime Ready cell lysis kit; Roche, Mannheim, Germany) and quantified in a qPCR assay (LightCycler 480 SYBR green I master mix; Roche) with the 5′-[…]-3′ (sense) and 5′-[…]-3′ (antisense) primers using the PCR conditions of denaturing at 95°C for 5 min followed by 40 cycles of amplification at 95°C for 15 s and 60°C for 30 s. Antiviral selectivity studies against a panel of different DNA and RNA viruses were performed at ImQuest BioSicences (Frederick, MD, USA). Briefly, test compounds were evaluated using 6 doses, including the highest concentration of 30 μM and five serial half-logarithmic dilutions in triplicate for the antiviral assays.

recombinant human PAPD5 = biological target: T1, recombinant human PAPD5 (Homo sapiens, UniProt Q8NDF8); assay: PAPD5 ATP depletion assay; type: biochemical; conditions: truncated recombinant human PAPD5, ATP depletion
T1 construct: PAPD5 (amino acids 186 to 518; XM_011523275); 10xHis (N); Flag (N); TEV cleavage site (N); host or cells: E. coli BL21(DE3), vector pET-24a(+)
Description: (§1) Molecular cloning, expression, and purification of the recombinant human PAPD5 and PAPD7 proteins were performed at Xtal BioStructures (MA, USA). PAPD5 (amino acids 186 to 518; GenBank accession no. XM_011523275) and PAPD7 (amino acids 226 to 558; GenBank accession no. NM_006999.6) genes comprising of nucleotidyltransferase and PAP-associated domains were codon optimized, synthesized, and inserted in the expression vector pET-24a(+) for E. coli expression with 10×His-Flag-tobacco etch virus (TEV) tags at the N terminus. The pET-24a(+) constructs were transformed into E. coli-competent cells BL21(DE3). […] Expression of protein was induced for 16 h with 0.2 mM IPTG (isopropyl-β-D-thiogalactopyranoside) at 18°C. […] Roche). Cell suspension was sonicated 8 × 20 s at 27 to 30 W (power level, 3.5 to 4.0) with 40-s breaks between each pulse. Lysate was cleared by centrifugation in a 50-ml conical tube at 20,000 × g for 30 min (Fiberlite F13-14 × 50cy rotor in a Sorvall RC6 centrifuge). Supernatant was incubated with Ni-charged MagBeads (GenScript; catalog no. […] Bound proteins were washed with 50 ml binding buffer and eluted in elution buffer containing a gradient of imidazole ranging from 5 to 500 mM. Peak fractions were pooled and stored in 50% glycerol at -80°C. Reactions were carried out in duplicate in 96-well low-profile, skirted, white plates (catalog no. AB0800WL; […] The reaction mixtures were incubated at room temperature for 3 h, and ATP depletion was monitored by using Kinase-Glo luminescent kinase kit following the manufacturer's instructions (catalog no. V6712; Promega, WI, USA).

HBV RNA poly(A) tails = conditions: Huh-7, 100 nM
HBV [1] = assay: Antiviral assay in HBV-infected primary human hepatocytes (PHH); type: cell-based; conditions: Hepatitis B virus, Hepatocyte
HBV [2] = assay: AAV-HBV-transduced mouse model; conditions: 7 days; for mean reduction of serum HBV DNA vs vehicle / mean reduction of serum HBsAg vs vehicle / reduction of intrahepatic HBsAg levels / reduction of intrahepatic pgRNA levels / reduction of intrahepatic total HBV RNA levels: oral
Description: Male C57BL/6J mice, 6 weeks old, were each inoculated with 1E11 genomes of adeno-associated virus (AAV) vector AAV-HBV1.2 containing a 1.2× overlength sequence of HBV genome (genotype D; GenBank accession no. V01460) ([2]). Mice were administered the AAV2/8-type vector via intravenous tail vein injection. Twenty-eight days after AAV infection, animals were randomized into groups (n = 5) based on serum HBsAg concentration. […] Serum and liver HBsAg concentrations were determined using the Bio-Rad enzyme immunoassay (EIA) GS HBsAg 3.0 kit according to the manufacturer's instructions. […] Total HBV RNA concentrations in the liver were quantified using a branched DNA assay (QuantiGene 2.0; Thermo Fisher Scientific) with probes targeting the shared 3′ region of HBV transcripts, whereas 3.5 kb HBV RNA concentrations were quantified with probes targeting the unique 5′ region of the pgRNA; in both cases, signal was normalized against mouse glyceraldehyde 3-phosphate dehydrogenase (GAPDH).

HBV [3] = assay: Antiviral assay in HBV-infected HepG2-NTCP cells; type: cell-based; conditions: Hepatitis B virus
recombinant human PAPD7 = biological target: T2, recombinant human PAPD7 (Homo sapiens, UniProt Q5XG87); assay: PAPD7 ATP depletion assay; type: biochemical
T2 construct: PAPD7 (amino acids 226 to 558; NM_006999.6); 10xHis (N); Flag (N); TEV cleavage site (N); host or cells: E. coli BL21(DE3), vector pET-24a(+)
Description: as §1

T2 sequence (Q5XG87 226-558): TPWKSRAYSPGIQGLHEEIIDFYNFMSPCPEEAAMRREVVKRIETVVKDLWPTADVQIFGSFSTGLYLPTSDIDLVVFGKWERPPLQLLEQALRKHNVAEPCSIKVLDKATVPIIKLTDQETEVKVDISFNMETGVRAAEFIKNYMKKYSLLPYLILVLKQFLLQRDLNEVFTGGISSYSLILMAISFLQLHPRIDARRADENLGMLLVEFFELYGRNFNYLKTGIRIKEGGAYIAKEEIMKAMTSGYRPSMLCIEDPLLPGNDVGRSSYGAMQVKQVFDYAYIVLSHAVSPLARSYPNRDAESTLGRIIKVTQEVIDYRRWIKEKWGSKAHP
T1 sequence (Q8NDF8 106-438 limits assumed): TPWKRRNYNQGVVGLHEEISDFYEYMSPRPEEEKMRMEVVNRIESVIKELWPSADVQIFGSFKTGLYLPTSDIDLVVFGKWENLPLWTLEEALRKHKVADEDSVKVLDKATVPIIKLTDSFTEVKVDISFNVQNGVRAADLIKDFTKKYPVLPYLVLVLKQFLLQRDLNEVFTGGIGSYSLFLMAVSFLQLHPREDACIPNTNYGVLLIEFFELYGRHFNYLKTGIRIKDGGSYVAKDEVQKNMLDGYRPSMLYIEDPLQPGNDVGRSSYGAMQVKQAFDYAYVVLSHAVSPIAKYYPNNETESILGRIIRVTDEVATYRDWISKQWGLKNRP

With `COCCCOc1cc2c(nc1OC)-c1cc(=O)c(C(=O)O)cn1[C@H](C(C)C)C2` [AB-452] the EC50 (DENV2) was > 30000 nM, the IC50 (recombinant human PAPD5) was 94 nM and the “poly(A) tail length of H133_dSLα transcripts” value (HBV RNA poly(A) tails; untreated 71) was 62 nucleotides. For the same compound, the “average poly(A) tail length of H133 transcripts” value (HBV RNA poly(A) tails; untreated 124) was 64 nucleotides, the “overall guanylation frequency, H133” value (HBV RNA poly(A) tails; untreated about 60%) was 24% and the EC50 (HBV [1]; read-out: HBV DNA EC50) was 4.2 ± 3.8 nM. The EC50 (HBV [1]; read-out: HBeAg EC50) was 3.7 ± 1.3 nM, the EC50 (HBV [1]; read-out: HBsAg EC50) was 3 ± 2.1 nM and the “mean reduction of serum HBV DNA vs vehicle” value (HBV [2]; 0.1 mg/kg twice daily) was 0.79 log10. The “mean reduction of serum HBsAg vs vehicle” value (HBV [2]; 0.1 mg/kg twice daily) was 0.68 log10, the “reduction of intrahepatic HBsAg levels” value (HBV [2]; 0.1 mg/kg twice daily) was 64% and the “reduction of intrahepatic pgRNA levels” value (HBV [2]; 0.1 mg/kg twice daily) was 43%. The “reduction of intrahepatic total HBV RNA levels” value (HBV [2]; 0.1 mg/kg twice daily) was 35%, the “mean reduction of serum HBV DNA vs vehicle” value (HBV [2]; 0.3 mg/kg twice daily) was 1.16 log10 and the “mean reduction of serum HBsAg vs vehicle” value (HBV [2]; 0.3 mg/kg twice daily) was 0.72 log10. For the same compound, the “reduction of intrahepatic HBsAg levels” value (HBV [2]; 0.3 mg/kg twice daily) was 69%, the “reduction of intrahepatic pgRNA levels” value (HBV [2]; 0.3 mg/kg twice daily) was 55% and the “reduction of intrahepatic total HBV RNA levels” value (HBV [2]; 0.3 mg/kg twice daily) was 55%. The “mean reduction of serum HBV DNA vs vehicle” value (HBV [2]; 1 mg/kg twice daily) was 0.94 log10, the “mean reduction of serum HBsAg vs vehicle” value (HBV [2]; 1 mg/kg twice daily) was 0.93 log10 and the “reduction of intrahepatic HBsAg levels” value (HBV [2]; 1 mg/kg twice daily) was 83%. For the same compound, the “reduction of intrahepatic pgRNA levels” value (HBV [2]; 1 mg/kg twice daily) was 63%, the “reduction of intrahepatic total HBV RNA levels” value (HBV [2]; 1 mg/kg twice daily) was 66% and the “tolerability / body weight” value (HBV [2]; oral, 0.1, 0.3, 1 mg/kg twice daily, vs vehicle) was “well tolerated, with no significant change or reduction in body weight”. For the same compound, the EC50 (HBV [3]; read-out: HBeAg EC50) was 4 ± 2.3 nM, the EC50 (HBV [3]; read-out: HBsAg EC50) was 6.8 ± 1.8 nM and the IC50 (recombinant human PAPD7) was 498 nM.
